According to patent US8710045B2, “Agents for preventing and treating disorders involving modulation of the ryanodine receptors” (The Trustees of Columbia University in the City of New York, priority 2004, dated 2014):
Several values for one entry are separate records, joined by “and”; a condition that tells them apart may be missing. Equal entries are not always repeated. Where two headings read alike, the source gives them in different places.

Tests used:
hERG current [1] = molecular target: T1, hERG current (Homo sapiens, UniProt Q12809); experiment: hERG current, manual whole-cell patch clamp in hERG-transfected HEK 293 cells (Example 5); format: cell-based; parameters: expressed in transfected cells; host or cells: HEK 293
Method: (§1) Electrophysiological recordings (using the whole-cell patch clamp method) were performed at room temperature (18° C.-24° C.). Each cell acted as its own control. The effect of ARM0036 was evaluated at two concentrations: 10 and 100 μM. Each concentration was tested in at least three cells (n≧3). 90 nM Cisapride (commercially available from TOCRIS Bioscience) was used as a positive control for hERG blockade. For recording, cells were transferred to the recording chamber and superfused with vehicle control solution. The patch pipette solution for whole cell recording contained 130 mM potassium aspartate, 5 mM MgCl2, 5 mM EGTA, 4 mM ATP and 10 mM HEPES. The pH was adjusted to 7.2 with KOH. The pipette solution was prepared in batches, aliquoted, and stored frozen. A fresh aliquot was thawed and used each day. Patch pipettes were made from glass capillary tubing using a P-97 micropipette puller (Sutter Instruments, Novato, Calif.). A commercial patch clamp amplifier was used for whole cell recordings. Before digitization, current records were low-pass filtered at one-fifth of the sampling frequency.

hERG = hERG (Homo sapiens, UniProt Q12809); experiment: as above; format: cell-based; parameters: expressed in transfected cells; host or cells: HEK 293; details: human, HEK 293 cells stably transfected with hERG cDNA
Method: as §1

L-type Ca2+ channels = molecular target: T2, L-type Ca2+ channels (Mus musculus, UniProt Q01815); experiment: L-type Ca2+ channel current, whole-cell patch clamp in isolated mouse cardiomyocytes; format: cell-based; details: Ba2+ as charge carrier
T2 construct: currents through L-type Ca^2+ channels in isolated mouse cardiomyocytes are recorded; endogenous in cells; host or cells: isolated mouse cardiomyocytes
Method: The final pellets are pooled and resuspended in imidazole buffer (final concentration≈10 μg/μl). […] Immunoblots are developed using an anti-FKBP antibody (1:3,000 dilution). The amount of rebinding is quantified using densitometry of Western blots and is compared to the amount of FKBP associated with RyR in non-phosphorylated SR. […] K2ATP, 5; HEPES, 10; aspartic acid, 50; pH 7.4 (CsOH). […] Drugs are applied by a local solution changer and reach the cell membrane within 1 s.

EDL muscle = experiment: Isometric force production of isolated EDL muscle after chronic exercise; format: in vivo, mouse; details: stimulation frequencies greater than 80 Hz
Method: Intact muscle preparation: Immediately following a forced exercise session, each mouse was sacrificed by carbon dioxide inhalation and cervical dislocation. Blood was removed by intracardiac aspiration, spun down, and plasma was eluted and frozen in liquid nitrogen. 4-0 silk sutures were tied to the proximal and distal tendons of intact EDL and soleus muscles and the muscles were dissected free and placed in a modified Ringer's solution (140 mM NaCl, 5 mM KCl, 2.0 mM CaCl2, 2 mM MgCl2, 10 mM HEPES, 10 mM glucose, pH 7.4) bubbled with 100% O2. […] After perfusion with 35C Ringer's and equilibration for 10 minutes at a resting tension of 1 cN and a brief potentiation protocol, force-frequency relationships were measured, with 60 second delays between 800 ms stimulations at 40-150 Hz. […] Following stimulation, muscle length was determined at resting tension, and muscle dry weight was recorded.
Age and sex-matched WT mice were randomized to receive osmotic pumps containing either S107 or vehicle. […] Exercise capacity was assessed once a week by a level treadmill run to exhaustion during the nocturnal cycle of the mouse. […] Isometric force production was measured in EDL muscles in a tissue bath during field stimulation.

hERG current [2] = molecular target: T1, hERG current; experiment: hERG current, PatchXpress 7000A automatic parallel patch clamp in hERG-transfected HEK 293 cells (Example 6); details: for Individual Data (% Inhibition): single cell
Method: HEK293 cells were transfected with a plasmid containing the hERG cDNA and a neomycin resistance gene. Stable transfectants were selected by culturing the cells in the presence of G418. The selection pressure was maintained by continued culture in the presence of G418. […] Cells for use in electrophysiology were cultured in 35 mm dishes.
Onset and steady state block of hERG current was measured using a pulse pattern with fixed amplitudes (conditioning prepulse: +20 mV for 2 seconds; test pulse: −50 mV for 2 seconds) repeated at 10 second intervals, from a holding potential of −80 mV. Peak tail current was measured during the 2 second step to −50 mV. A steady state was maintained for at least 30 seconds before applying the test compound or the positive control. Peak tail current was monitored until a new steady state was achieved. Test compound concentrations were applied cumulatively in ascending order without washout between applications.
Data acquisition and analysis was performed using the suite of pCLAMP (Vre. 8.2) programs (Axon Instruments, Union City, Calif.). Steady state was defined by the limiting constant rate of change with time (linear time dependence). The steady state before and after application of the test or control compounds was used to calculate the percentage of current inhibited at each concentration. […] Nonlinear squares fits were solved with the Solver add-in for Excel 2000 (Microsoft, Redmond, Wash.).
Multiple compounds of the invention were tested for their effects on hERG currents. The compounds tested were: ARM036-Na, ARM047, ARM048, ARM050, ARM057, ARM064, ARM074, ARM075, ARM076, ARM077, ARM101, ARM102, ARM103, ARM104, ARM106, ARM107 and ARM26. […] Electrophysiological recordings were made using the PatchXpress 7000 A (Molecular Devices) automatic parallel patch clamp system. […] The duration of exposure to each test concentration was 5 minutes.

hERG, sequence (Q12809 whole entry): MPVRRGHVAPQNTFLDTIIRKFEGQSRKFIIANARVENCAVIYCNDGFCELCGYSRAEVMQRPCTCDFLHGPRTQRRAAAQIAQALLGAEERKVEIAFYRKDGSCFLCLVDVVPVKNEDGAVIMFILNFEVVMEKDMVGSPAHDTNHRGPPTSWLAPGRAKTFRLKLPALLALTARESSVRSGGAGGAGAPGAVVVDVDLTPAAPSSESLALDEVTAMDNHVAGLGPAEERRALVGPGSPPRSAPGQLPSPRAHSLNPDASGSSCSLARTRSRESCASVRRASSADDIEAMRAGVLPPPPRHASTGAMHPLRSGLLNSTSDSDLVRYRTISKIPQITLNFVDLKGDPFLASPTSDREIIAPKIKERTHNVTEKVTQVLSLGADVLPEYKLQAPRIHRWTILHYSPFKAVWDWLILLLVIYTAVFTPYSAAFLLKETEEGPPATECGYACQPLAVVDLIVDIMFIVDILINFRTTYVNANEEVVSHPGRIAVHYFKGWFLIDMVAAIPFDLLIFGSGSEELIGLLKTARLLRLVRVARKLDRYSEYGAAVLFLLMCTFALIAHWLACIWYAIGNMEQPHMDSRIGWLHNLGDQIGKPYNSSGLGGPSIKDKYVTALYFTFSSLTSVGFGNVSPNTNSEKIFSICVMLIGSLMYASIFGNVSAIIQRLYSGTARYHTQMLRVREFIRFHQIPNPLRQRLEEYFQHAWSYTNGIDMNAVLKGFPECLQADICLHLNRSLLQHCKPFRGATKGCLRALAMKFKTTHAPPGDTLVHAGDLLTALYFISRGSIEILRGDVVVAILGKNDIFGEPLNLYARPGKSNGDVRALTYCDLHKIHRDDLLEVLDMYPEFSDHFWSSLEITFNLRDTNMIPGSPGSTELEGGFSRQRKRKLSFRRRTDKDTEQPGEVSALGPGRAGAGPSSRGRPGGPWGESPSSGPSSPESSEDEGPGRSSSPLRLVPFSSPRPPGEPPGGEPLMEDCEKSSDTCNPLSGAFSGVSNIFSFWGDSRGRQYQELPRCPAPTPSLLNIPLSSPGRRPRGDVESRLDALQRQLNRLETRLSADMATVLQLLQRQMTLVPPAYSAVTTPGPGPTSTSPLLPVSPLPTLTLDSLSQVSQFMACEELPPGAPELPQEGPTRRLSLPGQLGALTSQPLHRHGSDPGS
T1 sequence (Q12809 whole entry, the tested form may be a part): as the sequence (Q12809 whole entry) above

| Compound | block of HERG K+ channel (IKr) (hERG current [1]) | effect on hERG outward tail current (hERG current [1]; 100 μM) | inhibition at 10 µM (hERG; 10 μM, read-out: Mean percent inhibition of hERG current) | inhibition at 100 µM (hERG; 100 μM, read-out: Mean percent inhibition of hERG current) | inhibition at 100 µM (hERG; highest concentration tested (100 μM), read-out: hERG current inhibition at the highest concentration tested) | block of L-type Ca2+ channel current (ICa,L) (L-type Ca2+ channels) | EDL isometric force production (EDL muscle) | Mean % hERG Inhibition (hERG current [2]; 0.01 μM) | Individual Data (% Inhibition) (hERG current [2]; 0.01 μM, listed as ARM107, 0.01 µM) | Mean % hERG Inhibition (hERG current [2]; 0.1 μM) | Individual Data (% Inhibition) (hERG current [2]; 0.1 μM, listed as ARM107, 0.1 µM) | Mean % hERG Inhibition (hERG current [2]; 1 μM) | Individual Data (% Inhibition) (hERG current [2]; 1 μM, listed as ARM107, 1 µM) | Mean % hERG Inhibition (hERG current [2]; 10 μM) | Individual Data (% Inhibition) (hERG current [2]; 10 μM, listed as ARM107, 10 µM) | hERG current inhibition at the highest concentration tested (hERG current [2]; highest concentration tested (10 μM)) |
| --- | --- | --- | --- | --- | --- | --- | --- | --- | --- | --- | --- | --- | --- | --- | --- | --- |
| COc1ccc2c(c1)CN(C(=O)C(=O)O)CCS2 [S36] | does not block | minimally reduced | 0.7% | 0.9% | < 50% | does not block |  |  |  |  |  |  |  |  |  |  |
| COc1ccc2c(c1)CN(C)CCS2 [S107] |  |  |  |  |  |  | increased force production | 2.9% | 1.7% and 4.0% | 4.0% | 3.1% and 4.8% | 6.2% | 2.0% and 10.4% | 32.1% | 24.2% and 39.9% | less than 50% |
